Results from patent publication US7902254B1, “Method for treating conditions mediated by PPAR using macelignan” (Newtree Co., Ltd., priority 2005, dated 2011).

Columns and labels:
[1] = tested on: target genes of PPARα (CD36, ACO, CPT-1); assay: Expression of target genes of PPARα in liver tissue of obesity/diabetes mouse model; assay type: in vivo; conditions: 5, 10 and 25 mg/kg oral, 14 days, db/db mice, p<0.05 vs control
Method: Liver tissue was removed from the test groups and the controls treated by oral administration in Examples 5˜8. The liver tissue was homogenized in liquid nitrogen and the total RNA was isolated from the tissues by using TRIZOL (Invitrogen, USA). The total RNA isolated as described above was determined and cDNA was synthesized by using reverse transcriptase at 42° C. for 20 minutes with same amount of RNA. The cDNA was subjected to RT-PCR by repeating 30 cycles of 95° C./1 minute, 56° C./30 seconds and 72° C./2 minutes with the following primers and Taq polymerase: primers for CD36 amplification (SEQ ID NO: 5 and SEQ ID NO: 6), primers for ACO amplification (SEQ ID NO: 11 and SEQ ID NO: 12), and primers for CPT-1 amplification (SEQ ID NO: 7 and SEQ ID NO: 8). Expression of the genes was determined by real-time PCR.

human PPARα = molecular target: T1, human PPARα (Homo sapiens, UniProt Q07869); assay: PPARα activation, PPRE-controlled luciferase reporter in transfected COS-7 cells; assay type: cell-based; conditions: 24 hours
T1 construct: expressed in transfected cells; host or cells: COS-7 monkey kidney cells (ATCC CRL-1651)
T1 sequence (Q07869 192-468 limits assumed): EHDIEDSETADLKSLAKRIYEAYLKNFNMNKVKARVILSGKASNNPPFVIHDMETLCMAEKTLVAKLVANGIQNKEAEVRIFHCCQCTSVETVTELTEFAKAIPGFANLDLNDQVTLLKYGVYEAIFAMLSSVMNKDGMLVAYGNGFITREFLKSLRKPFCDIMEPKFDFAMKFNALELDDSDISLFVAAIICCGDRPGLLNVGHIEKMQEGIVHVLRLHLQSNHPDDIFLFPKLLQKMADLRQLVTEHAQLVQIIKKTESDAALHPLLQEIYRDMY
Method: To investigate whether macelignan acts as a ligand of PPAR or not, it was tested according to known method (Cell, 68: 879-887, 1992; J. Biol. Chem., 272: 25252-25259, 1997) using a plasmid expressing PPAR and a vector having PPRE-controlled luciferase genes.
Activation of luciferase expression was measured by transfecting COS-7 monkey kidney cells (ATCC CRL-1651) with the PPARα plasmid and pFR-luciferase vector (Stratagene, USA), and then by treating the transfected cells with macelignan isolated from Example 1 for 24 hours. The PPARα plasmid was obtained by isolating polynucleotide encoding the amino acid sequence of amino acids […] (i.e. PPARα ligand-bound domain of the total amino acid sequence of human PPARα (Genbank Acession No. S74349)) with the primers of SEQ ID NO: 1 ([…]) and SEQ ID NO: 2 (TGGGGTACCTGGCTGAT) by RT-PCR. Then, the polynucleotide was cloned between the restriction enzyme sites of BamHI and KpnI of pFA vector (Stratagene, USA). Herein, mRNA used as the template in RT-PCR was obtained by separating the total RNA in cultured Hep G2 (ATCC HB-8065) human liver cells by using TRIZOL (Invitrogen, USA). RT-PCR was performed by synthesizing cDNA using reverse transcriptase at 42° C. for 60 minutes, and 30 cycles of 1 minute at 95° C., 30 seconds at 54° C. and 2 minutes at 72° C. using Taq polymerase. At this time, the test groups treated with different concentrations (1, 5, 10 and 25 μM) of macelignan according to the present invention were compared to the control treated with 0.01% DMSO, and to the groups treated with different concentrations (1, 5, 10 and 25 μM) of Wy-14643 (Sigma, USA), a compound known as a PPARα ligand.

[2] = tested on: 3T3-L1 mouse pre-adipocytes; assay: Stimulation of adipocyte differentiation; assay type: cell-based; conditions: 10 μM, 3T3-L1, vs 0.01% DMSO control and 10 μM troglitazone
Method: 3T3-L1 mouse pre-adipocytes cultured in a DMEM medium containing 10% FBS were pipetted into a multi-well plate in a cell count of 1×10^6 cells per well, and then further cultured for 5 hours. To the cultured cells, 10 μM of macelignan was added and then left for 24 hours. Adipocyte differentiation was induced by substituting the medium of the cultured cells with MDI (0.5 mM 3-isobutyl-1-methylxanthine, 0.5 uM dexamethasone, 10 ug/ml insulin) medium (Am. J. Physiol. Cell Physiol., 280: C807-C813, 2001). The shape of the cells was observed by an optical microscope two day after the substitution of MDI medium.

[3] = tested on: obesity/diabetes mice (db/db mice); assay: Anti-obesity effect in obesity/diabetes mouse model; assay type: in vivo; conditions: for body weight / intramuscular triglyceride accumulation / white adipose tissue weight: 14th day, db/db mice
Method: To investigate the anti-obesity effect of macelignan, seven mice of 10 week-aged obesity/diabetes mice (db/db mice) were used per test group. To the test groups, macelignan suspended in […] carboxymethyl cellulose was orally administered in an administration dose of 5 mg/kg (body weight), 10 mg/kg (body weight) and 25 mg/kg (body weight), once per day at a predetermined time, for 14 days. As a control, 0.25% carboxymethyl cellulose was orally administered alone to normal mice in the same dose as administered to the test group. As another control, 0.25% carboxymethyl cellulose was orally administered alone to obesity/diabetes mice in the same dose as administered to the test group. As still another control, 10 mg/kg (body weight) of troglitazone was orally administered. From 6 days before the administration, diet intake and body weight of each obesity/diabetes mouse were measured once per three days. Additionally, on the 14th day after the oral administration, white adipose tissue weight and the amount of triglyceride accumulated in muscle cell were measured (Triglyceride measuring kit, Wako, No. 432-40201, Japan).

SMILES: COc1cc(C[C@H](C)[C@H](C)Cc2ccc3c(c2)OCO3)ccc1O (single isomer, unassigned) [macelignan]
- mRNA expression of CD36, ACO and CPT-1 in liver tissue [1]: significantly increased
- luciferase activity higher than the control (PPARα) (human PPARα; 25 μM, control 0.01% DMSO): about 14 times
- PPARα activity (human PPARα; 1, 5, 10 and 25 μM, p<0.01 vs control): increased PPARα activity in a concentration-dependent manner
- adipocyte differentiation [2]: adipocyte differentiation was stimulated
- body weight ([3]; 5 mg/kg oral): 46.32 ± 2.31 g
- intramuscular triglyceride accumulation ([3]; 5 mg/kg oral): 24.7 ± 4.74 mg
- white adipose tissue weight ([3]; 5 mg/kg oral): 4230 ± 284 mg
- body weight ([3]; 10 mg/kg oral): 43.8 ± 2.94 g
- intramuscular triglyceride accumulation ([3]; 10 mg/kg oral): 22.8 ± 5.76 mg
- white adipose tissue weight ([3]; 10 mg/kg oral): 3900 ± 279 mg
- body weight ([3]; 25 mg/kg oral): 41.80 ± 1.56 g
- intramuscular triglyceride accumulation ([3]; 25 mg/kg oral): 20.2 ± 3.82 mg
- white adipose tissue weight ([3]; 25 mg/kg oral): 2690 ± 154 mg
- diet intake ([3]; 5, 10 and 25 mg/kg oral, 14 days, test groups vs controls): no significant difference
